Data on three compounds can be found in patent US20030158250A1, “Agents correcting gene expression regulatory error” (priority 2000, published 2003).

Type in all cases: cell-based
The subject of one assay is interleukin-1α (IL-1α). The experiment in a line: RT-PCR expression level of IL-1α gene in monocytes. The following applies: human monocytes, 30 PCR cycles. The protocol: (§1) Four-hundred milliliters of blood was collected from a human normal individual donor. The collected blood was diluted 2-folds with PBS(−), overlaid on Ficoll-paque (manufactured by Pharmacia), and centrifuged at 500×g for 20 minutes. The peripheral blood mononuclear cells (PBMCs) in the intermediate layer was collected with a pipette, and washed with RPMI 1640 medium (manufactured by Bio Whittaker). The collected PBMCs was suspended in a storage solution of 90% FCS (manufactured by JRH Biosciences)/10% dimethyl sulfoxide, and stored in liquid nitrogen. During the experiment, these stored PBMCs were rapidly melted in water bath at 37° C., and washed with RPMI 1640 medium containing 10 μg/ml Dnase (manufactured by Calbiochem). Thereafter, the number of living cells was calculated by trypan blue staining method, and subjected to each experiment.
(§2) PBMCs were suspended in RPMI 1640 medium containing 5% human serum of blood type-AB, 0.1 mM nonessential amino acid, 1 mM sodium pyruvate, 2 mM L-glutamine (hereinabove manufactured by Bio Whittaker), 10 mM HEPES (manufactured by nakalai tesque), and 1% streptomycin-penicillin (manufactured by Gibco BRL) (hereinafter simply referred to as “5HRPMI medium”) so as to have a concentration of 4×10^6 cells/ml. Thereafter, the suspension was spread on a 6-well cell culture plate (manufactured by Falcon) in a volume of 3 ml/well, and the cells were incubated in a wet-type incubator at 37° C. and 5% CO2 for 1.5 hours. After 1.5 hours, the non-adherent cells were removed by suction, and each well was washed with RPMI 1640 medium, and 2 ml of the 5HRPMI medium was added to the wells, to give monocytes.
(§3) To the monocytes obtained above was added in each well 8 μl of an aqueous DGE solution, or 8 μl of water as a control, and the cells were incubated in a wet-type incubator at 37° C. and 5% CO2 for 5 hours. Thereafter, with addition of 2 μl of a 1 μg/ml aqueous LPS solution or 2 μl of a 25 μM TPA dimethyl sulfoxide solution to each well, or with addition of neither of these substances thereto, the cells were cultured for additional 4 hours. Thereafter, RNA was prepared from each cell in accordance with the description of the kit using RNeasy Mini Kit (manufactured by QIAGEN, 74104). The group with addition of water alone or the aqueous DGE solution alone to the cells was set as a negative control, and the group with addition of water and the aqueous LPS solution or the aqueous TPA solution to the cells was set as a positive control.
(§4) A liquid mixture having a total volume of 60 μl of 0.5 μg of RNA prepared above, 10 mM Tris-HCl (pH 8.3), 50 mM KCl, 5 mM MgCl2, 1 mM dNTP mixtures, 150 pmol of Random 6 mers, 60 U Ribonuclease Inhibitor (manufactured by Takara Shuzo Co., Ltd., 2310A), and 15 U Reverse Transcriptase XL (AMV) (manufactured by Takara Shuzo Co., Ltd., 2620A) were incubated at 30° C. for 10 minutes and thereafter at 42° C. for 1 hour using a thermal cycler (GeneAmp PCR System 9600, manufactured by Applied Biosystems), and the mixture was heated at 99° C. for 5 minutes to deactivate the enzyme, to give cDNA.
(§5) Oligonucleotide primers for reaction of PCR were designed based on mRNA nucleotide sequence of each gene listed in the following tables, and synthesized in the same manner as above. In Tables 4 and 5, each gene evaluated in this Example, GenBank Accession NO, the name of oligonucleotide primers and SEQ ID NOs of the primers in Sequence Listing were listed. […]

Assay [1] has as its system adenosine A2a receptor (ADORA2A). The assay can be described thus: RT-PCR expression level of ADORA2A gene in monocytes. The following applies: human monocytes, 35 PCR cycles. The protocol: as §1, §2, §3, §4, §5
Assay [2] concerns liver and activation-regulated chemokine (LARC). The experiment in a line: RT-PCR expression level of LARC gene in monocytes. The following applies: human monocytes, 30 PCR cycles. The protocol: as §1, §2, §3, §4, §5
The next assay deals with interleukin-6 (IL-6). The experiment in a line: RT-PCR expression level of IL-6 gene in monocytes. The following applies: human monocytes, 30 PCR cycles. The protocol: as §1, §2, §3, §4, §5
Another assay has as its system MIP1α mRNA. The assay can be described thus: RT-PCR of MIP1α mRNA in monocytes. The following applies: human monocytes; for amplification of band ascribed to MIP1α mRNA, stimulant alone: LPS or TPA alone, 4 hours, RT-PCR. The protocol: as §1, §2
as §3, with “control. […]” for “control.”

The subject of a further assay is transketolase (TK). The assay can be described thus: RT-PCR expression level of TK gene in monocytes. The following applies: human monocytes, 30 PCR cycles. The protocol:
as §1, §2, §3, §4, §5

A further assay relates to interleukin-1β (IL-1β). The assay can be described thus: RT-PCR expression level of IL-1β gene in monocytes. As to conditions: human monocytes, 30 PCR cycles. The protocol: as §1, §2, §3, §4, §5
In assay [3] the test system is macrophage-derived chemokine (MDC). The experiment in a line: RT-PCR expression level of MDC gene in monocytes. The following applies: human monocytes, 30 PCR cycles. The protocol: as §1, §2, §3, §4, §5
For the next assay, the system named is RANTES mRNA. The assay can be described thus: RT-PCR of RANTES mRNA in monocytes. As to conditions: human monocytes. The protocol: as §1
PBMCs were suspended in RPMI 1640 medium containing 5% human serum of blood type-AB, 0.1 mM nonessential amino acid, 1 mM sodium pyruvate, 2 mM L-glutamine (hereinabove manufactured by Bio Whittaker), 10 mM HEPES (manufactured by nakalai tesque), and 1% streptomycin-penicillin (manufactured by Gibco BRL) (hereinafter simply referred to as “5HRPMI medium”) so as to have a concentration of 4×10^6 cells/ml. […]

Where [4] appears, read: substance added alone, Con. (water) +/−.
Setting [5] is: substance added alone, Con. (water) +.
The mark [6] stands for this setting: substance added alone, Con. (water) −.
Setting [7] is: L + D: DGE and LPS, LPS alone +++.
[8] abbreviates: T + D: DGE and TPA, TPA alone +.
Setting [9] is: T + D: DGE and TPA, TPA alone ++.
Setting [10] is: DGE 5 hours, then LPS 4 hours, RT-PCR band.
[11] abbreviates: T + D: DGE and TPA, TPA alone −.

Take “12-o-tetradecanoylphorbol 13-acetate [TPA, reference compound]”: the “expression level of IL-1α gene” value with interleukin-1α (IL-1α) (setting [4]) was “+”. Also, the “expression level of ADORA2A gene” value in assay [1] (setting [5]) is recorded as “+”. In [2] (setting [4]), the “expression level of LARC gene” value is on record as “++”. Also, the “expression level of IL-6 gene” value with interleukin-6 (IL-6) (setting [6]) is reported as “+”. Further, the “amplification of band ascribed to MIP1α mRNA, stimulant alone” value in the assay on MIP1α mRNA is reported as “induction”. In addition, the “expression level of TK gene” value in the assay on transketolase (TK) (setting [4]) is given as “−”. Also, in the assay with interleukin-1β (IL-1β) (setting [5]), the “expression level of IL-1β gene” value is “++”. The “expression level of MDC gene” value in assay [3] (setting [6]) is on record as “−”.
In the case of `O=C1C=CC(CO)OC1O` [DGE, L-glycero-1,5-epoxy-1αβ,6-dihydroxy-cis-hex-3-en-2-one], the results for the “expression level of IL-1α gene” value in the assay on interleukin-1α (IL-1α) (setting [7]), in the assay with interleukin-1α (IL-1α) (setting [8]) and in the assay with interleukin-1α (IL-1α) (setting [4]) were “+/−”, “−” and “−”, respectively. The “expression level of ADORA2A gene” value in assay [1] (setting [7]) was “−”; in assay [1] (setting [8]), “−”; in [1] (setting [5]), “+/−”. Moreover, the “expression level of LARC gene” value was “+” in [2] (setting [7]), “+” in assay [2] (setting [9]) and “+/−” in assay [2] (setting [4]). Besides, the “expression level of IL-6 gene” value in the assay with interleukin-6 (IL-6) (setting [7]), with interleukin-6 (IL-6) (setting [8]) and with interleukin-6 (IL-6) (setting [6]) was “−” each time. For the same compound, the “induction of MIP1α mRNA by LPS, effect of DGE” value in the assay on MIP1α mRNA (setting [10]) is reported as “inhibited”. In addition, the “induction of MIP1α mRNA by TPA, effect of DGE” value with MIP1α mRNA (DGE 5 hours, then TPA 4 hours, RT-PCR band) is “inhibited”. Moreover, the “expression level of TK gene” value in the assay with transketolase (TK) (L + D: DGE and LPS, LPS alone +/−) is listed as “+”; in the assay with transketolase (TK) (setting [11]), “+”; in the assay on transketolase (TK) (setting [4]), “+/−”. The “expression level of IL-1β gene” value in the assay on interleukin-1β (IL-1β) (setting [7]), in the assay with interleukin-1β (IL-1β) (setting [9]) and in the assay on interleukin-1β (IL-1β) (setting [5]) was “+” throughout. The “induction of RANTES mRNA by LPS, effect of DGE” value in the assay with RANTES mRNA (setting [10]) is recorded as “inhibited”. Moreover, the “expression level of MDC gene” value in [3] (L + D: DGE and LPS, LPS alone +) was “−”; in assay [3] (setting [11]), “−”; in assay [3] (setting [6]), “−”.
For “lipopolysaccharide [LPS, reference compound]”, the “expression level of IL-1α gene” value in the assay on interleukin-1α (IL-1α) (setting [4]) is recorded as “+++”. In addition, in [1] (setting [5]), the “expression level of ADORA2A gene” value is “+++”. In assay [2] (setting [4]), the “expression level of LARC gene” value was “+++”. Besides, the “expression level of IL-6 gene” value in the assay on interleukin-6 (IL-6) (setting [6]) is “+++”. For the same compound, in the assay on MIP1α mRNA, the “amplification of band ascribed to MIP1α mRNA, stimulant alone” value is “induction”. Besides, the “expression level of TK gene” value in the assay with transketolase (TK) (setting [4]) is recorded as “+/−”. In the assay on interleukin-1β (IL-1β) (setting [5]), the “expression level of IL-1β gene” value is listed as “+++”. For the same compound, in the assay on RANTES mRNA (LPS alone, 4 hours, RT-PCR), the “amplification of band ascribed to RANTES mRNA, stimulant alone” value was “induction”. Further, the “expression level of MDC gene” value in [3] (setting [6]) is recorded as “+”.
